# According to PubChem BioAssay (NCI):
#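 The compound was tested at five concentrations on cells cultured in 96-well plates, with a 48-hour exposure period. GI50 marks 50% less growth. TGI denotes the concentration required for complete inhibition of growth.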
# What was measured:
# Test in all cases: NCI-60 cell line screen, 48 h
# 786-0 renal = system: 786-0 renal
# A498 renal = system: A498 renal
# A549 NSCLC = system: A549 NSCLC
# ACHN renal = system: ACHN renal
# BT-549 breast = system: BT-549 breast
# CAKI-1 renal = system: CAKI-1 renal
# CCRF-CEM leukemia = system: CCRF-CEM leukemia
# COLO 205 colon = system: COLO 205 colon
# DU-145 prostate = system: DU-145 prostate
# EKVX NSCLC = system: EKVX NSCLC
# HCC-2998 colon = system: HCC-2998 colon
# HCT-116 colon = system: HCT-116 colon
# HCT-15 colon = system: HCT-15 colon
# HL-60(TB) leukemia = system: HL-60(TB) leukemia
# HOP-62 NSCLC = system: HOP-62 NSCLC
# HOP-92 NSCLC = system: HOP-92 NSCLC
# HS 578T breast = system: HS 578T breast
# IGROV1 ovarian = system: IGROV1 ovarian
# K-562 leukemia = system: K-562 leukemia
# KM12 colon = system: KM12 colon
# LOX IMVI melanoma = system: LOX IMVI melanoma
# M14 melanoma = system: M14 melanoma
# MALME-3M melanoma = system: MALME-3M melanoma
# MCF7 breast = system: MCF7 breast
# MDA-MB-231 breast = system: MDA-MB-231 breast
# MDA-MB-435 = system: MDA-MB-435
# MOLT-4 leukemia = system: MOLT-4 leukemia
# NCI-H226 lung = system: NCI-H226 lung
# NCI-H23 lung = system: NCI-H23 lung
# NCI-H460 lung = system: NCI-H460 lung
# NCI-H522 lung = system: NCI-H522 lung
# NCI/ADR-RES ovarian = system: NCI/ADR-RES ovarian
# OVCAR-3 ovarian = system: OVCAR-3 ovarian
# OVCAR-4 ovarian = system: OVCAR-4 ovarian
# OVCAR-5 ovarian = system: OVCAR-5 ovarian
# OVCAR-8 ovarian = system: OVCAR-8 ovarian
# PC-3 prostate = system: PC-3 prostate
# RPMI-8226 leukemia = system: RPMI-8226 leukemia
# RXF 393 renal = system: RXF 393 renal
# SF-268 CNS = system: SF-268 CNS
# SF-295 CNS = system: SF-295 CNS
# SF-539 CNS = system: SF-539 CNS
# SK-MEL-2 melanoma = system: SK-MEL-2 melanoma
# SK-MEL-28 melanoma = system: SK-MEL-28 melanoma
# SK-MEL-5 melanoma = system: SK-MEL-5 melanoma
# SK-OV-3 ovarian = system: SK-OV-3 ovarian
# SN12C renal = system: SN12C renal
# SNB-19 CNS = system: SNB-19 CNS
# SNB-75 CNS = system: SNB-75 CNS
# SR leukemia = system: SR leukemia
# SW-620 colon = system: SW-620 colon
# T-47D breast = system: T-47D breast
# TK-10 renal = system: TK-10 renal
# U251 CNS = system: U251 CNS
# UACC-257 melanoma = system: UACC-257 melanoma
# UACC-62 melanoma = system: UACC-62 melanoma
# UO-31 renal = system: UO-31 renal
smiles,measurement,setting,value
CCCCCCCCCCCCCCCC1=NC(C)(C)CN1C(C)C,GI50,786-0 renal,1.59 µM
same,TGI,786-0 renal,2.94 µM
same,GI50,A498 renal,2.41 µM
same,TGI,A498 renal,6.24 µM
same,GI50,A549 NSCLC,1.81 µM
same,TGI,A549 NSCLC,3.43 µM
same,GI50,ACHN renal,1.52 µM
same,TGI,ACHN renal,2.84 µM
same,GI50,BT-549 breast,5.12 µM
same,TGI,BT-549 breast,23.7 µM
same,GI50,CAKI-1 renal,1.13 µM
same,TGI,CAKI-1 renal,2.53 µM
same,GI50,CCRF-CEM leukemia,1.41 µM
same,TGI,CCRF-CEM leukemia,3.47 µM
same,GI50,COLO 205 colon,1.5 µM
same,TGI,COLO 205 colon,2.83 µM
same,GI50,DU-145 prostate,1.56 µM
same,TGI,DU-145 prostate,2.9 µM
same,GI50,EKVX NSCLC,1.74 µM
same,TGI,EKVX NSCLC,4.24 µM
same,GI50,HCC-2998 colon,1.35 µM
same,TGI,HCC-2998 colon,2.64 µM
same,GI50,HCT-116 colon,1.22 µM
same,TGI,HCT-116 colon,2.46 µM
same,GI50,HCT-15 colon,1.47 µM
same,TGI,HCT-15 colon,2.79 µM
same,GI50,HL-60(TB) leukemia,0.91 µM
same,TGI,HL-60(TB) leukemia,2.4 µM
same,GI50,HOP-62 NSCLC,1.63 µM
same,TGI,HOP-62 NSCLC,2.98 µM
same,GI50,HOP-92 NSCLC,1.1 µM
same,TGI,HOP-92 NSCLC,3.45 µM
same,GI50,HS 578T breast,1.62 µM
same,TGI,HS 578T breast,3.87 µM
same,GI50,IGROV1 ovarian,1.12 µM
same,TGI,IGROV1 ovarian,2.41 µM
same,GI50,K-562 leukemia,0.448 µM
same,TGI,K-562 leukemia,1.72 µM
same,GI50,KM12 colon,1.33 µM
same,TGI,KM12 colon,2.6 µM
same,GI50,LOX IMVI melanoma,1.45 µM
same,TGI,LOX IMVI melanoma,2.8 µM
same,GI50,M14 melanoma,1.57 µM
same,TGI,M14 melanoma,2.91 µM
same,GI50,MALME-3M melanoma,1.64 µM
same,TGI,MALME-3M melanoma,3.35 µM
same,GI50,MCF7 breast,1.55 µM
same,TGI,MCF7 breast,3.01 µM
same,GI50,MDA-MB-231 breast,1.61 µM
same,TGI,MDA-MB-231 breast,3.1 µM
same,GI50,MDA-MB-435,1.44 µM
same,TGI,MDA-MB-435,2.93 µM
same,GI50,MOLT-4 leukemia,1.16 µM
same,TGI,MOLT-4 leukemia,2.73 µM
same,GI50,NCI-H226 lung,2.13 µM
same,TGI,NCI-H226 lung,6.6 µM
same,GI50,NCI-H23 lung,1.49 µM
same,TGI,NCI-H23 lung,2.81 µM
same,GI50,NCI-H460 lung,1.73 µM
same,TGI,NCI-H460 lung,3.11 µM
same,GI50,NCI-H522 lung,1.55 µM
same,TGI,NCI-H522 lung,3.02 µM
same,GI50,NCI/ADR-RES ovarian,1.78 µM
same,TGI,NCI/ADR-RES ovarian,4.33 µM
same,GI50,OVCAR-3 ovarian,0.824 µM
same,TGI,OVCAR-3 ovarian,2.09 µM
same,GI50,OVCAR-4 ovarian,2.04 µM
same,TGI,OVCAR-4 ovarian,6.37 µM
same,GI50,OVCAR-5 ovarian,1.55 µM
same,TGI,OVCAR-5 ovarian,2.93 µM
same,GI50,OVCAR-8 ovarian,1.72 µM
same,TGI,OVCAR-8 ovarian,3.58 µM
same,GI50,PC-3 prostate,1.37 µM
same,TGI,PC-3 prostate,3.68 µM
same,GI50,RPMI-8226 leukemia,1.04 µM
same,TGI,RPMI-8226 leukemia,2.82 µM
same,GI50,RXF 393 renal,1.52 µM
same,TGI,RXF 393 renal,2.96 µM
same,GI50,SF-268 CNS,1.47 µM
same,TGI,SF-268 CNS,2.79 µM
same,GI50,SF-295 CNS,1.74 µM
same,TGI,SF-295 CNS,3.3 µM
same,GI50,SF-539 CNS,1.63 µM
same,TGI,SF-539 CNS,2.98 µM
same,GI50,SK-MEL-2 melanoma,1.63 µM
same,TGI,SK-MEL-2 melanoma,3.07 µM
same,GI50,SK-MEL-28 melanoma,1.64 µM
same,TGI,SK-MEL-28 melanoma,3 µM
same,GI50,SK-MEL-5 melanoma,1.68 µM
same,TGI,SK-MEL-5 melanoma,3.04 µM
same,GI50,SK-OV-3 ovarian,1.85 µM
same,TGI,SK-OV-3 ovarian,3.57 µM
same,GI50,SN12C renal,1.38 µM
same,TGI,SN12C renal,2.89 µM
same,GI50,SNB-19 CNS,2.04 µM
same,TGI,SNB-19 CNS,5.02 µM
same,GI50,SNB-75 CNS,1.47 µM
same,TGI,SNB-75 CNS,2.94 µM
same,GI50,SR leukemia,0.254 µM
same,TGI,SR leukemia,1.36 µM
same,GI50,SW-620 colon,1.52 µM
same,TGI,SW-620 colon,2.85 µM
same,GI50,T-47D breast,1.93 µM
same,TGI,T-47D breast,4.54 µM
same,GI50,TK-10 renal,1.44 µM
same,TGI,TK-10 renal,2.74 µM
same,GI50,U251 CNS,1.51 µM
same,TGI,U251 CNS,2.84 µM
same,GI50,UACC-257 melanoma,1.77 µM
same,TGI,UACC-257 melanoma,3.31 µM
same,GI50,UACC-62 melanoma,1.67 µM
same,TGI,UACC-62 melanoma,3.14 µM
same,GI50,UO-31 renal,1.44 µM
same,TGI,UO-31 renal,2.84 µM
